# Measured values reported in ChEMBL document CHEMBL1201862, “PubChem BioAssay data set” (2004).
# Active and inactive are the calls of the source.
# How the values were obtained:
# Troponin, cardiac muscle = Troponin, cardiac muscle (Homo sapiens, UniProt P19429+P45379+P63316); test: Fluorescence-based biochemical high throughput dose response assay for activators of the calcium sensitivity of cardiac Regulated Thin Filaments (RTF). [Related pubchem assays (depositor defined):AID493008, AID493018, AID504382, AID504383]; format: protein-complex assay
# [1] = biological target: G-protein coupled receptor 55 (Homo sapiens, UniProt Q9Y2T6); test: GPR55 antagonists, SAR follow-up, counter-screen for GPR35 antagonist project, imaging, image-based (AID 2397); format: functional
# Cytochrome P450 3A4 = Cytochrome P450 3A4 (Homo sapiens, UniProt P08684);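 further: CYP3A4 tested as one member of a cytochrome P450 panel screen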
# [2] = HEp-2 cell cytotoxicity, dose response, cytotoxicity control for RSV inhibitor project, HTS (AID 2410); format: functional; details: human respiratory syncytial virus
# [3] = biological target: Peroxisome proliferator-activated receptor gamma/Nuclear receptor coactivator 1 (Homo sapiens, UniProt P37231); test: (§1) TR-FRET dose response biochemical High Throughput Screening assay for agonists of the steroid receptor coactivator 1 (SRC-1) recruitment by the peroxisome proliferator-activated receptor gamma (PPAR gamma): non-selective agonists. [Related pubchem assays (depositor defined):AID1300, AID1808, AID504735, AID631]; format: protein assay
# [4] = tested on: Streptococcus sp. 'group A'; test: growth inhibition of control SK(-) GAS strain, dose response, counter-screen for streptokinase expression inhibitor project, luminescence, kanamycin, BacTiterGlo, confirmation (AID 1900); format: functional, organism-based
# [5] = biological target: Peroxisome proliferator-activated receptor gamma/Nuclear receptor coactivator 3 (Homo sapiens, UniProt P37231); test: as §1, with “3 (SRC-3)” for “1 (SRC-1)”, “assays: 1301 (Confirmation screen.), 1048 (Primary screen.)]” for “assays (depositor defined):AID1300, AID1808, AID504735, AID631]”; format: functional
# Streptococcus [6] = test: Luminescence Microorganism-Based Dose Response Follow up to Identify Compounds Cytotoxic to Streptococcus. [Related pubchem assays: 1677 (Project Summary), 1915, 1914, 1902 (Retest at Dose), 1900 (Counter Screen), 1662 (Primary HTS)]; format: functional, organism-based
# Streptokinase A = biological target: T1, Streptokinase A (Streptococcus pyogenes serotype M1, UniProt P10520); test: S. pyogenes streptokinase expression inhibitors, potency, dose response, plasminogen activation absorbance, OD405 (AID 1914); format: functional, Streptococcus pyogenes M1 GAS;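 further: secreted streptokinase activity via plasminogen activation per viability signal from cell pellet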
# T1 sequence (P10520 whole entry): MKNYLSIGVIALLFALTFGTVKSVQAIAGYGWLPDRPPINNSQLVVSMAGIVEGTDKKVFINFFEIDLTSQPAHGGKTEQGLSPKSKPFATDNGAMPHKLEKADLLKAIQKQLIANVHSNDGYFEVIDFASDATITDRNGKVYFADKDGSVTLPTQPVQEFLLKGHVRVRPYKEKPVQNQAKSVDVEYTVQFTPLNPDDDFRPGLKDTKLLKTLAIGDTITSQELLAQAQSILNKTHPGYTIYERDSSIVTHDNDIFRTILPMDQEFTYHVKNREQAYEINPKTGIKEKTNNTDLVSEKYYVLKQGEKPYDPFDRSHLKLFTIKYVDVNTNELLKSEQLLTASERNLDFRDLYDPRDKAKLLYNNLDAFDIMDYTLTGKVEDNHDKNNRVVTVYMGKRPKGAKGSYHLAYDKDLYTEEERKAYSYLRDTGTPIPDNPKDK
# [7] = biological target: Protein-tyrosine kinase 2-beta (Homo sapiens, UniProt Q14289);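 further: potency of inhibitors of PYK2 kinase phosphorylation of poly-GT substrate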
# [8] = biological target: Peroxisome proliferator-activated receptor gamma/Nuclear receptor coactivator 2 (Homo sapiens, UniProt P37231); test: TR-FRET dose response biochemical High Throughput Screening assay for agonists of the steroid receptor coactivator 2 (SRC-2) recruitment by the peroxisome proliferator-activated receptor gamma (PPAR gamma): non-selective agonists. [Related pubchem assays: 1297, 1032 ]; format: functional
# Streptococcus [9] = test: Group A Streptococcus viability loss, dose response, counter-screen for streptokinase expression inhibitor project, luminescence, BacTiterGlo (AID 1915); format: functional, organism-based;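 further: potency for reduction of bacterial viability or growth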
# Ion channel NompC = Ion channel NompC (Danio rerio, UniProt Q7T1G6); test: Dose response cell-based high-throughput screening assay for agonists of the transient receptor potential channel N1 (TRPN1). [Related pubchem assays (depositor defined):AID1424, AID1448]; format: functional
# Mucolipin-3 = biological target: T2, Mucolipin-3 (Homo sapiens, UniProt Q8TDD5); test: Fluorescence counterscreen assay for […] agonists: dose response cell-based high-throughput screening assay to identify agonists of the transient receptor potential channel ML3 (TRPML3). [Related pubchem assays: 1424, 1448 ]; format: functional
# T2 sequence (Q8TDD5 whole entry): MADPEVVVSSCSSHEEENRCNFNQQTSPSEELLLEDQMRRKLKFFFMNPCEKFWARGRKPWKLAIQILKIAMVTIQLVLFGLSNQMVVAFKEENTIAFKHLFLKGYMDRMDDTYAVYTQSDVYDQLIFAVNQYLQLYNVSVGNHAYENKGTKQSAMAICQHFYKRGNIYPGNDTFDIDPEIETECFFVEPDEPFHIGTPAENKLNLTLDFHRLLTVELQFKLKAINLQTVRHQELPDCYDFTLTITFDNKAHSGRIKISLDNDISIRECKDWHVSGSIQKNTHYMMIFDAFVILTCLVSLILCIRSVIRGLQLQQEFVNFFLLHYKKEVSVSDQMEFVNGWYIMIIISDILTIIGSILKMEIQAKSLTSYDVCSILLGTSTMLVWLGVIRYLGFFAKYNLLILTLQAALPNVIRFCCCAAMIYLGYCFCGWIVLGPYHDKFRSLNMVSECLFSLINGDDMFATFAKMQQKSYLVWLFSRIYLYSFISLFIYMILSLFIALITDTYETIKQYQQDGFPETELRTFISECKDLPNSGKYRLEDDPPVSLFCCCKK
# [10] = off-target signal loss in HeLa-CEM21 co-culture – HeLa F-luc CTL cells, cherry-picked, counter-screen for HIV-1 Env fusion inhibitor project, dose response (AID 652040); format: functional, cell-based;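 further: potency for signal decrease marking cytotoxic or nonspecific inhibition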
# Chain of G-protein coupled receptor 55 (Q9Y2T6 whole entry): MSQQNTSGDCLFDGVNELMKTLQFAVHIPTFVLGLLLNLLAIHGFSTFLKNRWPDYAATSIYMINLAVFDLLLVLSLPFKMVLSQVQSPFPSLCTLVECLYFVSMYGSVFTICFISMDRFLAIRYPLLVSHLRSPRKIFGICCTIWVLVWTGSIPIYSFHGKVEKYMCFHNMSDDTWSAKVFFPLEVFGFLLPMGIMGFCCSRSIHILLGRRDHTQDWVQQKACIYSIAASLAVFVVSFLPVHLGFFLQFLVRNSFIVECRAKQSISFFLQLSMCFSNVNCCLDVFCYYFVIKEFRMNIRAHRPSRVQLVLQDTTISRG
# Chain of Peroxisome proliferator-activated receptor gamma/Nuclear receptor coactivator 2 (P37231 whole entry): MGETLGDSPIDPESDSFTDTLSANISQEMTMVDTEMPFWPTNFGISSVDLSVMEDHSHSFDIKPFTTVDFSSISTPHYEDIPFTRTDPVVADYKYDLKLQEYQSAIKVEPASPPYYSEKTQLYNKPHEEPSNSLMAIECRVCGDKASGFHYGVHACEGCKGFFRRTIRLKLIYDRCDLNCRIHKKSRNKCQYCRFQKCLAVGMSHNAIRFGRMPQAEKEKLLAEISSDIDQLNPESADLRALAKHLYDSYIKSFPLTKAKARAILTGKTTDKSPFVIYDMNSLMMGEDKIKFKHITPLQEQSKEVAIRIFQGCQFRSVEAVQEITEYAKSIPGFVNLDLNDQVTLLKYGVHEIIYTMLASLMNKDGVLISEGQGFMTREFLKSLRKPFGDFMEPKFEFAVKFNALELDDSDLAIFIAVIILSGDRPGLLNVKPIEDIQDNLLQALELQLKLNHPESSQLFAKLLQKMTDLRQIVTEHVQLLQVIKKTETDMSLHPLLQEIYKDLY
# Chain of Peroxisome proliferator-activated receptor gamma/Nuclear receptor coactivator 2 (Q15596 whole entry, further chain): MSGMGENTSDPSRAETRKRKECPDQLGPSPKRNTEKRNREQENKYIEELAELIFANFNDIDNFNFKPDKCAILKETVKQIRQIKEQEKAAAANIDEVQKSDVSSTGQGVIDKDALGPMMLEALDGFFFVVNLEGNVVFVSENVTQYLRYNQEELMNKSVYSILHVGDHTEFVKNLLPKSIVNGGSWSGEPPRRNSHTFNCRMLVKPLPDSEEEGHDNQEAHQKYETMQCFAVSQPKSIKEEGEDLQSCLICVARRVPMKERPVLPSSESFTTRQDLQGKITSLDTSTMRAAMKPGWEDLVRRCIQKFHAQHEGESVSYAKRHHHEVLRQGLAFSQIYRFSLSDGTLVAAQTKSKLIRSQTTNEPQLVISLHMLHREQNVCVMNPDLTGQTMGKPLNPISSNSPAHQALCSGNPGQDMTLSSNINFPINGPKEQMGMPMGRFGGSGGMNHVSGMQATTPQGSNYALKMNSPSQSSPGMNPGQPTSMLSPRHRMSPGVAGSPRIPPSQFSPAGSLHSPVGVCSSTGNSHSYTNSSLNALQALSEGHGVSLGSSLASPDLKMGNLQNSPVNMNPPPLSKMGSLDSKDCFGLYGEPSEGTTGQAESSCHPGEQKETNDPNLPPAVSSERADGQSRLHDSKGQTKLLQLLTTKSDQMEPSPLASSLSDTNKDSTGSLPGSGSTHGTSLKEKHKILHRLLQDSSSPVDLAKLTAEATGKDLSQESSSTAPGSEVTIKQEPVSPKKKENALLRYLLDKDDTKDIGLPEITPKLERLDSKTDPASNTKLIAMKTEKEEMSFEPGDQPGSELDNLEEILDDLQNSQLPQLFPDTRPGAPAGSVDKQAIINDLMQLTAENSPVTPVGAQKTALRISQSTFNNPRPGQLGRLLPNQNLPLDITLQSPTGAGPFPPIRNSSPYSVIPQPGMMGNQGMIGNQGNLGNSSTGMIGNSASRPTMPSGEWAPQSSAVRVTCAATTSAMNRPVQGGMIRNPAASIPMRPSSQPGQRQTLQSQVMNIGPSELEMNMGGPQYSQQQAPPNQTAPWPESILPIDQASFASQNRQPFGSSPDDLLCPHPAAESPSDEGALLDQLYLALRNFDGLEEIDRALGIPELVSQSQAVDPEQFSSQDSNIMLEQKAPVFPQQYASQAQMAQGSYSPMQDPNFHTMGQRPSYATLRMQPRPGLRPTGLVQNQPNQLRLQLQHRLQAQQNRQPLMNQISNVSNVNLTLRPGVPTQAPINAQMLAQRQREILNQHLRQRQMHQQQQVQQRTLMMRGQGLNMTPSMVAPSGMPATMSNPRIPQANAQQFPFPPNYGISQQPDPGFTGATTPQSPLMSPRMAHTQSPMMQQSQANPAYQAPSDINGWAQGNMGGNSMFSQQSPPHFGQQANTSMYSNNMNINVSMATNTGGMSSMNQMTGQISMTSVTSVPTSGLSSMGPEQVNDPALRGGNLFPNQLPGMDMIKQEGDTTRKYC
# Chain of Peroxisome proliferator-activated receptor gamma/Nuclear receptor coactivator 1 (P37231 whole entry): as the sequence (P37231 whole entry) above
# Chain of Peroxisome proliferator-activated receptor gamma/Nuclear receptor coactivator 1 (Q15788 whole entry, further chain): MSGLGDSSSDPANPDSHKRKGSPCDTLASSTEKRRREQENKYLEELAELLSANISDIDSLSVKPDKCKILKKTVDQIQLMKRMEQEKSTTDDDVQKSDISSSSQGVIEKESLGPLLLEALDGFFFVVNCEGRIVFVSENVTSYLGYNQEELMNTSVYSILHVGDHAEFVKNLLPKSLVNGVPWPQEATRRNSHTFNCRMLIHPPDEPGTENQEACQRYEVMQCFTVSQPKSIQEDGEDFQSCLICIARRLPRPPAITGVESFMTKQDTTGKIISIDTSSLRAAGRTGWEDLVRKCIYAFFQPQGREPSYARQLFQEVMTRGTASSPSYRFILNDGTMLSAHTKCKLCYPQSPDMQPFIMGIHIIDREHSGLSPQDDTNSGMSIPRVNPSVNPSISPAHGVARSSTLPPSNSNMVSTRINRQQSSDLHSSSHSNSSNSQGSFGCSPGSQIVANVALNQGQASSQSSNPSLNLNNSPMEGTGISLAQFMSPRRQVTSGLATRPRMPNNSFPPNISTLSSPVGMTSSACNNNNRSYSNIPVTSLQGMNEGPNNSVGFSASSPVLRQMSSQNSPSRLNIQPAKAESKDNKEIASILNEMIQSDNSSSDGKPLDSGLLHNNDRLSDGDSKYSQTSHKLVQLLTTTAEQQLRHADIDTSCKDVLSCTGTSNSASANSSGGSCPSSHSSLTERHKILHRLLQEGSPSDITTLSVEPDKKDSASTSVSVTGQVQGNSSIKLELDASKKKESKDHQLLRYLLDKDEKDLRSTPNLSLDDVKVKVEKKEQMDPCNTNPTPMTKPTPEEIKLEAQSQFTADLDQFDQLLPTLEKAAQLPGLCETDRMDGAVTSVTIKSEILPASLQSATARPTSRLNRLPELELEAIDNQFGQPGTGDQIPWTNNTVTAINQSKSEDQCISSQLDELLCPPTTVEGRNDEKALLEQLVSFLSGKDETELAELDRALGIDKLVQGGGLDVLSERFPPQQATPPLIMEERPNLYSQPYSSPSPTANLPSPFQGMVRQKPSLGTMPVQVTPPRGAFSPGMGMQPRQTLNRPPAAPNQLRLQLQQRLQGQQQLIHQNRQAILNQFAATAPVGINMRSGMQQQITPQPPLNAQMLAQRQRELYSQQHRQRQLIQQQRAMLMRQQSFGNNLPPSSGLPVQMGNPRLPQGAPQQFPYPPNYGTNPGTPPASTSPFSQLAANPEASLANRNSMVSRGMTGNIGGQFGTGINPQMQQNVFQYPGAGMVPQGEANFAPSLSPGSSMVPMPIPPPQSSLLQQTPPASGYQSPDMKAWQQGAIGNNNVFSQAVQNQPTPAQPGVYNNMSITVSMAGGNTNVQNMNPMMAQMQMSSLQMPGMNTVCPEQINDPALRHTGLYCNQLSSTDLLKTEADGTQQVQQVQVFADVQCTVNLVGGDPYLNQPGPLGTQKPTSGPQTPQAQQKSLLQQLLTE
# Chain of Cytochrome P450 3A4 (P08684 whole entry): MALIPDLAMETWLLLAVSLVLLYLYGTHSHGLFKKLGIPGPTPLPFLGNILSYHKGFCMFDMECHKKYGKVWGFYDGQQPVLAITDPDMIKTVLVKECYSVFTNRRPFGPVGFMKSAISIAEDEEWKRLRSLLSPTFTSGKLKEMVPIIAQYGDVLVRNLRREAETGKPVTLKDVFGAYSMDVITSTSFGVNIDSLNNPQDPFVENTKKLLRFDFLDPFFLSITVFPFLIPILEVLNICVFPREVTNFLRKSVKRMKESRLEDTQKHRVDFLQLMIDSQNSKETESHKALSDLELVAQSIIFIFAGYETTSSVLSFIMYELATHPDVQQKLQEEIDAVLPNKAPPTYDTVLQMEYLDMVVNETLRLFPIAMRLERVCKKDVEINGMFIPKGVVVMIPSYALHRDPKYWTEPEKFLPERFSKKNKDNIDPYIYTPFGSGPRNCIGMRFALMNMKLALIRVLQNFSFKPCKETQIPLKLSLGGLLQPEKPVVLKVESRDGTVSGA
smiles,measurement,setting,value
COc1cc(CCCN2C(S)=NC[C@@H]2CC2CCCCC2)cc(OC)c1OC,EC50,"Troponin, cardiac muscle",> 71.5 µM (inactive)
Cc1nc(N2CCC(C)CC2)c2c(C)c(C(=O)Nc3ccc(C)c(F)c3)sc2n1,IC50,[1],> 32 µM (inactive)
CCc1nnc(NC(=O)CCC(=O)N2CCN(c3ccccn3)CC2)s1,AC50,Cytochrome P450 3A4,inconclusive
COc1ccc(-c2nc(-c3cccs3)c(-c3cccs3)[nH]2)cc1OC,CC50,[2],23.4 µM (active)
same,EC50,[3],13.9 µM (inactive)
same,EC50,[4],2.57 µM (active)
same,EC50,[5],> 79.4 µM (not active)
same,EC50,Streptococcus [6],5.41 µM (active)
same,EC50,Streptokinase A,1.41 µM (active)
same,IC50,[7],> 69.5 µM (not active)
same,EC50,[8],15.6 µM (not active)
same,EC50,Streptococcus [9],> 150 µM (not active)
Cc1cc(O)nc(SCC(=O)Nc2ccccc2C)n1,EC50,Ion channel NompC,> 29.9 µM (inactive)
same,EC50,Mucolipin-3,> 29.9 µM (not active)
Cc1ccc(Cn2ncc3c(N4CCN(c5ccc(C)cc5)CC4)ncnc32)cc1,IC50,[1],> 32 µM (inactive)
same,AC50,[10],6.95 µM (active)
